Assay results published in BindingDB's records for doi:10.1021/jm0604777 (University of Bristol, 2006).
pKi: −log10 of the molar value.

Tests used:
[1] = target: Delta-type opioid receptor (Homo sapiens, UniProt P41143); assay: Displacement of [3H]Cl-DPDPE from human recombinant DOR expressed in CHO cells
[2] = Binding affinity to DOR in guinea pig brain membrane

Delta-type opioid receptor, sequence (P41143 whole entry): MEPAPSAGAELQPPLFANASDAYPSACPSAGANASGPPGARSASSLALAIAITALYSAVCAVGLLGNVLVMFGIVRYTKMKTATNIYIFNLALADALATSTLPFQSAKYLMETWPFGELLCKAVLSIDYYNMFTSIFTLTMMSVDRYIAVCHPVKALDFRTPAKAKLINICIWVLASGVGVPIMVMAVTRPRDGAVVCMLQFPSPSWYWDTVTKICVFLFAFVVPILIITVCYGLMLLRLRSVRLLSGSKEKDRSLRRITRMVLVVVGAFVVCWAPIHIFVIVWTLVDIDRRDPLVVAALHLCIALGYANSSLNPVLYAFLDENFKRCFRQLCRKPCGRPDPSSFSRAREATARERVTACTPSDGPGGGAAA

| SMILES | pKi [1] | pKi [2] |
| --- | --- | --- |
| Cc1ccc(CCC(=O)N[C@@]23CCC(=O)[C@@H]4Oc5c(O)ccc6c5[C@@]42CCN(C)C3C6)cc1 [N-[(1R,13R,17S)-10-hydroxy-4-methyl-14-oxo-12-oxa-4-azapentacyclo[9.6.1.0^{1,13}.0^{5,17}.0^{7,18}]octadeca-7(18),8,10-trien-17-yl]-3-(4-methylphenyl)propanamide] | 8.89 |  |
| COc1ccc2c3c1O[C@H]1C(=O)CC[C@@]4(NC(=O)/C=C/c5ccccc5Cl)C(C2)N(CC2CC2)CC[C@]314 [N-cyclopropylmethyl-14beta-(2'-chlorocinnamoylamino)-7,8-dihydronorcodeinone] |  | 8.14 |
| COc1ccc2c3c1O[C@H]1C(=O)CC[C@@]4(NC(=O)/C=C/c5ccccc5C)C(C2)N(CC2CC2)CC[C@]314 [N-cyclopropylmethyl-14beta-(2'-methylcinnamoylamino)-7,8-dihydronorcodeinone] |  | 8.64 |
| Cc1ccccc1/C=C/C(=O)N[C@@]12CCC(=O)[C@@H]3Oc4c(O)ccc5c4[C@@]31CCN(CC1CC1)C2C5 [N-cyclopropylmethyl-14beta-(2'-methylcinnamoylamino)-7,8-dihydronormorphinone] | 8.89 |  |
